Reference: patent publication US20090325964A1, “Piperazine Metabotropic Glutamate Receptor 5 (MGLUR5) Negative Allosteric Modulators For Anxiety/Depression” (Wyeth, priority 2008, published 2009)

Molecular target: T1, rat mGluR5 receptor (Rattus norvegicus, UniProt P31424)
T1 construct: expressed in transfected cells; host or cells: HEK-293
Experiment: [3H]-MPEP displacement binding assay, HEK-293 cell membranes expressing rat mGluR5
Details: Biological Activity, Table 2A; for inhibition at 10 µM: @ 10 μM compound, read-out: PCT INHIB (%) @ 10 μM; for Ki: read-out: Median Ki
In short: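 Membranes from HEK-293 cells expressing rat mGluR5 (12-25 μg protein), incubated 60 min at room temperature with 4 nM [3H]-MPEP in 50 mM Tris pH 7.5, then filtered. Nonspecific binding defined with 10 μM MPEP.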

T1 sequence (P31424 21-1203): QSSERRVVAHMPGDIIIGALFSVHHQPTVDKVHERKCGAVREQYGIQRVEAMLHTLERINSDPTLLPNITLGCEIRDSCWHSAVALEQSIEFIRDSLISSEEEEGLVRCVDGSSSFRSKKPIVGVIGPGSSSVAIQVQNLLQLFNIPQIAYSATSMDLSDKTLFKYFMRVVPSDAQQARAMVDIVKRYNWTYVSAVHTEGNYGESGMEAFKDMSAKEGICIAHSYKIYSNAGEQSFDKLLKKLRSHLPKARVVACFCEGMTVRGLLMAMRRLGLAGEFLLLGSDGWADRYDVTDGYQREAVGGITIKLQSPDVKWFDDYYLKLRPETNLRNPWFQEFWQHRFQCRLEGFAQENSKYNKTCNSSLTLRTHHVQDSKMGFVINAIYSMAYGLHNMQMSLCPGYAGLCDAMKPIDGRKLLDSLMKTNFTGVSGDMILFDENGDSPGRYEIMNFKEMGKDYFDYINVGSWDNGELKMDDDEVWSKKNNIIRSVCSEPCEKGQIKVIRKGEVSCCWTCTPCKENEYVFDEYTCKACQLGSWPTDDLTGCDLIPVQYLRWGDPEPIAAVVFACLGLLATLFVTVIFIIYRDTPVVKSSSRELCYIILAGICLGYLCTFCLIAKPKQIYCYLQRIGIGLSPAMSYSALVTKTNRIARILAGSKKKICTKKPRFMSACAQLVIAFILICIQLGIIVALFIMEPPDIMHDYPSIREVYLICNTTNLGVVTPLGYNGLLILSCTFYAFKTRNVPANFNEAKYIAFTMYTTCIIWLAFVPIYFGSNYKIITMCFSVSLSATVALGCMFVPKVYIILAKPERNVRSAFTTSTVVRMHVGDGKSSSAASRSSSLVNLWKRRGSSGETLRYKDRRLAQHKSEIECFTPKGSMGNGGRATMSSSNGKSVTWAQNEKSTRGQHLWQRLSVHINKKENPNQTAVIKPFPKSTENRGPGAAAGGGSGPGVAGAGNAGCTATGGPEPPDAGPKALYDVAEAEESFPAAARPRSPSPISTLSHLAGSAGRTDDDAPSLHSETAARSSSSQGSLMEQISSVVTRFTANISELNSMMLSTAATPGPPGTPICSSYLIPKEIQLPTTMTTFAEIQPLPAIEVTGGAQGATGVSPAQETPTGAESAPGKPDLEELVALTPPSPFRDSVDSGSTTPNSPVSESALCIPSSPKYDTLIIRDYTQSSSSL

SMILES | inhibition at 10 µM [%] | Ki [nM]
CC1CN(c2ccccn2)CCN1C(=O)c1cccc(C#Cc2ccccn2)c1 (stereo not shown) [Compound 98, 2-methyl-4-pyridin-2-yl-1-[3-(pyridin-2-ylethynyl)benzoyl]piperazine] | 72 | 679
Cc1cc(C)nc(N2CCN(C(=O)c3cccc(C#Cc4ccccn4)c3)CC2)n1 [Compound 100, 4,6-dimethyl-2-{4-[3-(pyridin-2-ethynyl)benzoyl]piperazin-1-yl}pyrimidine] | 55 | 2160
Cc1cnc(C)c(N2CCN(C(=O)c3cccc(C#Cc4ccccn4)c3)CC2)n1 [Compound 103, 2,5-dimethyl-3-{4-[3-(pyridin-2-ylethynyl)benzoyl]piperazin-1-yl}pyrazine] | 16 | 
CC1CN(C(=O)c2cccc(C#Cc3ccccn3)c2)CCN1c1ccccn1 (stereo not shown) [Compound 105, 2-methyl-1-pyridin-2-yl-4-[3-(pyridin-2-ylethynyl)benzoyl]piperazine] | 58 | 826
Cc1cccc(N2CCN(C(=O)c3cccc(C#Cc4ccccc4)c3)CC2)n1 [Compound 110, 1-(6-methylpyridin-2-yl)-4-[3-(phenylethynyl)benzoyl]piperazine] | 68 | 3410
Cc1cc(C)nc(N2CCN(C(=O)c3cccc(C#Cc4ccccc4)c3)CC2)n1 [Compound 111, 4,6-dimethyl-2-{4-[3-(phenylethynyl)benzoyl]piperazin-1-yl}pyrimidine] | 0 | 
COc1ccc(C(=O)N2CCN(c3ncccn3)CC2)cc1C#Cc1ccccc1 [Compound 112, 2-{4-[4-methoxy-3-(phenylethynyl)benzoyl]piperazin-1-yl}pyrimidine] | 90 | 62.5
COc1ccc(C(=O)N2CCN(c3ccc(C#N)cn3)CC2)cc1C#Cc1ccccc1 [Compound 113, 6-{4-[4-methoxy-3-(phenylethynyl)benzoyl]piperazin-1-yl}nicotinonitrile] | 81 | 357
COc1ccc(C(=O)N2CCN(c3cccc(C)n3)CC2)cc1C#Cc1ccccc1 [Compound 116, 1-[4-methoxy-3-(phenylethynyl)benzoyl]-4-(6-methylpyridin-2-yl]piperazine] | 77 | 853
COc1ccc(C(=O)N2CCN(c3cccc(C(F)(F)F)n3)CC2)cc1C#Cc1ccccc1 [Compound 117, 1-[4-methoxy-3-(phenylethynyl)benzoyl]-4-[6-(trifluoromethyl)pyridin-2-yl]piperazine] | 35 | 
COc1ccc(C(=O)N2CCN(c3nc(C)cc(C)n3)CC2)cc1C#Cc1ccccc1 [Compound 119, 2-{4-[4-methoxy-3-(phenylethynyl)benzoyl]piperazin-1-yl}-4,6-dimethylpyrimidine] | 35 | 
O=C(c1ccnc(C#Cc2ccccc2)c1)N1CCN(c2ncccn2)CC1 [Compound 120, 2-{4-[2-(phenylethynyl)isonicotinoyl]piperazin-1-yl}pyrimidine] | 49 | 2890
N#Cc1ccc(N2CCN(C(=O)c3ccnc(C#Cc4ccccc4)c3)CC2)nc1 [Compound 122, 6-{4-[2-(phenylethynyl)isonicotinoyl]piperazin-1-yl}nicotinonitrile] | 0 | 
Cc1ccnc(N2CCN(C(=O)c3ccnc(C#Cc4ccccc4)c3)CC2)c1 [Compound 124, 1-(4-methylpyridin-2-yl)-4-[2-(phenylethynyl)isonicotinoyl]piperazine] | 84 | 338
O=C(c1cncc(C#Cc2ccccc2)c1)N1CCN(c2ncccn2)CC1 [Compound 130, 2-(4-{[5-(phenylethynyl)pyridin-3-yl]carbonyl}piperazin-1-yl)pyrimidine] | 47 | 
N#Cc1cccnc1N1CCN(C(=O)c2cncc(C#Cc3ccccc3)c2)CC1 [Compound 135, 2-(4-{[5-(phenylethynyl)pyridin-3-yl]carbonyl}piperazin-1-yl)nicotinonitrile] | 28 | 
N#Cc1cccnc1N1CCN(C(=O)c2ccnc(C#Cc3ccccc3)c2)CC1 [Compound 139, 2-{4-[2-(phenylethynyl)isonicotinoyl]piperazin-1-yl}nicotinonitrile] | 40 | 

The remaining lines, values ahead:

inhibition at 10 µM [%] | Ki [nM] | SMILES
64 | 1450 | O=C(c1cccc(C#Cc2ccccn2)c1)N1CCN(c2ncc(O)cn2)CC1 [Compound 99, 2-{4-[3-(pyridin-2-ylethynyl)benzoyl]piperazin-1-yl}pyrimidin-5-ol]
52 | 2350 | COc1cccnc1N1CCN(C(=O)c2cccc(C#Cc3ccccn3)c2)CC1 [Compound 101, 1-(3-methoxypyridin-2-yl)-4-[3-(pyridin-2-ylethynyl)benzoyl]piperazine]
92 | 80 | COc1nsnc1N1CCN(C(=O)c2cccc(C#Cc3ccccn3)c2)CC1 [Compound 102, 1-(4-methoxy-1,2,5-thiadiazol-3-yl)-4-[3-(pyridin-2-ylethynyl)benzoyl]piperazine]
71 | 1460 | O=C(c1cccc(C#Cc2ccccn2)c1)N1CCN(c2cncc(Cl)n2)CC1 [Compound 104, 2-chloro-6-{4-[3-(pyridin-2-ylethynyl)benzoyl]piperazin-1-yl}pyrazine]
86 | 2.19 | O=C(c1cccc(C#Cc2ccccn2)c1)N1CCN(c2nccc(-c3ccccc3)n2)CC1 [Compound 106, 4-phenyl-2-{4-[3-(pyridin-2-ylethynyl)benzoyl]piperazin-1-yl}pyrimidine]
0 |  | O=C(c1cccc(C#Cc2ccccc2)c1)N1CCN(c2ccc(C(F)(F)F)cn2)CC1 [Compound 108, 1-[3-(phenylethynyl)benzoyl]-4-[5-(trifluoromethyl)pyridin-2-yl]piperazine]
26 |  | COc1ccc(C(=O)N2CCN(c3ccc(C(F)(F)F)cn3)CC2)cc1C#Cc1ccccc1 [Compound 114, 1-[4-methoxy-3-(phenylethynyl)benzoyl]-4-[5-(trifluoromethyl)pyridin-2-yl]piperazine]
93 | 3.15 | COc1ccc(C(=O)N2CCN(c3cc(C)ccn3)CC2)cc1C#Cc1ccccc1 [Compound 115, 1-[4-methoxy-3-(phenylethynyl)benzoyl]-4-(4-methylpyridin-2-yl]piperazine]
78 | 1760 | COc1ccc(C(=O)N2CCN(c3ncccc3C#N)CC2)cc1C#Cc1ccccc1 [Compound 118, 2-{4-[4-methoxy-3-(phenylethynyl)benzoyl]piperazin-1-yl}nicotinonitrile]
72 | 1130 | O=C(c1ccnc(C#Cc2ccccc2)c1)N1CCN(c2ccccn2)CC1 [Compound 121, 1-[2-(phenylethynyl)isonicotinoyl]-4-pyridin-2-ylpiperazine]
0 |  | O=C(c1ccnc(C#Cc2ccccc2)c1)N1CCN(c2ccc(C(F)(F)F)cn2)CC1 [Compound 123, 1-[2-(phenylethynyl)isonicotinoyl]-4-[5-(trifluoromethyl)pyridin-2-yl]piperazine]
30 |  | Cc1cccc(N2CCN(C(=O)c3ccnc(C#Cc4ccccc4)c3)CC2)n1 [Compound 125, 1-(6-methylpyridin-2-yl)-4-[2-(phenylethynyl)isonicotinoyl]piperazine]
54 |  | O=C(c1ccnc(C#Cc2ccccc2)c1)N1CCN(c2cccc(C(F)(F)F)n2)CC1 [Compound 126, 1-[2-(phenylethynyl)isonicotinoyl]-4-[6-(trifluoromethyl)pyridin-2-yl]piperazine]
36 |  | O=C(c1ccnc(C#Cc2ccccc2)c1)N1CCN(c2cnccn2)CC1 [Compound 127, 2-{4-[2-(phenylethynyl)isonicotinoyl]piperazin-1-yl}pyrazine]
48 |  | N#Cc1ccc(N2CCN(C(=O)c3cccc(C#Cc4ccccc4)c3)CC2)nc1 [Compound 128, 6-{4-[3-(phenylethynyl)benzoyl]piperazin-1-yl}nicotinonitrile]
45 |  | O=C(c1cccc(C#Cc2ccccc2)c1)N1CCN(c2ncccc2C(F)(F)F)CC1 [Compound 129, 1-[3-(phenylethynyl)benzoyl]-4-[3-(trifluoromethyl)pyridin-2-yl]piperazine]
0 |  | N#Cc1ccc(N2CCN(C(=O)c3cncc(C#Cc4ccccc4)c3)CC2)nc1 [Compound 131, 6-(4-{[5-(phenylethynyl)pyridin-3-yl]carbonyl}piperazin-1-yl)nicotinonitrile]
0 |  | O=C(c1cncc(C#Cc2ccccc2)c1)N1CCN(c2ccc(C(F)(F)F)cn2)CC1 [Compound 132, 1-{[5-(phenylethynyl)pyridin-3-yl]carbonyl}-4-[5-(trifluoromethyl)pyridin-2-yl]piperazine]
52 | 651 | Cc1ccnc(N2CCN(C(=O)c3cncc(C#Cc4ccccc4)c3)CC2)c1 [Compound 133, 1-(4-methylpyridin-2-yl)-4-{[5-(phenylethynyl)pyridin-3-yl]carbonyl}piperazine]
0 |  | O=C(c1cncc(C#Cc2ccccc2)c1)N1CCN(c2ncccc2C(F)(F)F)CC1 [Compound 134, 1-{[5-(phenylethynyl)pyridin-3-yl]carbonyl}-4-[3-(trifluoromethyl)pyridin-2-yl]piperazine]
0 |  | Cc1cc(C)nc(N2CCN(C(=O)c3cncc(C#Cc4ccccc4)c3)CC2)n1 [Compound 136, 4,6-dimethyl-2-(4-{[5-(phenylethynyl)pyridin-3-yl]carbonyl}piperazin-1-yl)pyrimidine]
32 |  | O=C(c1cncc(C#Cc2ccccc2)c1)N1CCN(c2cnccn2)CC1 [Compound 137, 2-(4-{[5-(phenylethynyl)pyridin-3-yl]carbonyl}piperazin-1-yl)pyrazine]
0 |  | O=C(c1cncc(C#Cc2ccccc2)c1)N1CCN(c2ccncc2)CC1 [Compound 138, 1-{[5-(phenylethynyl)pyridin-3-yl]carbonyl}-4-pyridin-4-ylpiperazine]
